# Source: patent EP1638538B1, “DOSAGE FORM” (priority 2003, dated 2005)
# Assay: Time for complete absorption of sunflower oil into compressed sporopollenin tablets with an absorption aiding liquid
# Assay type: physicochemical
# Experimental: Sporopollenin (0.5 g) tablets were prepared by compressing in a 16 mm die at a pressure of 10 tonnes for 2 min. […] The resulting powder was dried in a dessicator over P2O5 in oven at 50°C until constant weight.
# [1] = sunflower oil (1 ml) + liquid (1 ml), 0.5 g tablet, room temperature
SMILES,Time for complete absorption [1] [s],"Time for complete absorption (sunflower oil, repeated at 40 °C) [s]"
CC#N [acetonitrile],20,
ClCCl [dichloromethane],35,
CCO [ethanol],20,12
CCOC(C)=O [ethyl acetate],50,
